Experimental data published in the supplement of paper PMC11208160.

Assay: recombinant barcode read abundance after kanamycin selection (control-corrected) (log10(CPM+1)); higher = more efficient recombination; sequences stand for … in AGTGCAGAGAAAATCGGCCAGTTTTCTCTGCCTGCAGTCCGCATGCCGT…AGATTTATGCAGCGGACTGCCTTTCTCCCAAAGTGATAAACCGGACAGTATCATGGACCGGTTTTCCCGGTAATCCGTATTTGCAAGGTTGGTTTCACT; site = the 11-nt target
Outline: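 Values are log10(CPM+1) from a pooled E. coli screen of targets paired with IS621 bridge RNA target-binding loops. Recombination efficiency here means counts per million of recombinant-junction barcodes, averaged and control-corrected. Plates were chloramphenicol/ampicillin LB agar for the control and chloramphenicol/ampicillin/kanamycin with 0.1 mM IPTG, two replicates each.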
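Also: IS621 recombinase and bridge RNA in Escherichia coli cells.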

Sequence	recombinant barcode read abundance (log10)
TAGGTGTCTTGGGTTCTAACCTGTTGCCT (site TAGGTGTCTAG)	1.33
TAGGTGTCTTGGGTTCTAACCTGTTGCCT (site TATGTGTCTAG)	0.0655
TAGGTTCCTTGGGTTCTAACCTGTTGCCT (site TAGGTTCCTAG)	0.348
TAGGTTCCTTGGGTTCTAACCTGTTGCCT (site TCGGTTCCTAG)	0.161
TAGTACCCTTGGGTTCTAACCTGTTGCAC (site TAGTACCCTAT)	0.169
TAGTACCCTTGGGTTCTAACCTGTTGCAC (site TAGTACCCTCT)	0.298
TAGTACCCTTGGGTTCTAACCTGTTGCAC (site TAGTACCCTGT)	1.28
TAGTACCCTTGGGTTCTAACCTGTTGCAC (site TAGTACCCTTT)	0.0304
TAGTACCCTTGGGTTCTAACCTGTTGCAG (site TAGTACCCTAT)	0.0395
TAGTACCCTTGGGTTCTAACCTGTTGCAG (site TAGTACCCTCT)	1.23
TAGTACCCTTGGGTTCTAACCTGTTGCAG (site TAGTACCCTGT)	0.152
TAGTACCCTTGGGTTCTAACCTGTTGCAG (site TAGTACCCTTT)	0.0625
TAGTACCCTTGGGTTCTAACCTGTTGCTG (site TAGTAACCTAA)	0.434
TAGTACCCTTGGGTTCTAACCTGTTGCTG (site TAGTACCCTCA)	1.92
TAGTAGTCTTGGGTTCTAACCTGTTGCGT (site TAGTAGTCTAA)	0.509
TAGTAGTCTTGGGTTCTAACCTGTTGCGT (site TAGTAGTCTAC)	2.79
TAGTAGTCTTGGGTTCTAACCTGTTGCGT (site TAGTAGTCTAG)	0.729
TAGTAGTCTTGGGTTCTAACCTGTTGCGT (site TAGTAGTCTAT)	2.34
TAGTCATCTTGGGTTCTAACCTGTTGCTC (site TAGACATCTGA)	0.0065
TAGTCATCTTGGGTTCTAACCTGTTGCTC (site TAGCCATCTGA)	0.252
TAGTCATCTTGGGTTCTAACCTGTTGCTC (site TAGGCATCTGA)	0.243
TAGTCATCTTGGGTTCTAACCTGTTGCTC (site TAGTCATCTGA)	1.41

Sequence	recombinant barcode read abundance (log10)
TAGTCCACTTGGGTTCTAACCTGTTGCGC (site CTCAAAGCTCG)	0.0907
TAGTCCACTTGGGTTCTAACCTGTTGCGC (site TAGTCCACTGC)	1.98
TAGTCCGCTTGGGTTCTAACCTGTTGCGG (site GAGTTCGCTCC)	0.00991
TAGTCCGCTTGGGTTCTAACCTGTTGCGG (site TAGTCCGCTCC)	0.0626
TAGTCCTCTTGGGTTCTAACCTGTTGCTT (site TAGTCCTCTAA)	1.22
TAGTCCTCTTGGGTTCTAACCTGTTGCTT (site TAGTCCTCTCA)	0.173
TAGTCCTCTTGGGTTCTAACCTGTTGCTT (site TAGTCCTCTGA)	0.13
TAGTCCTCTTGGGTTCTAACCTGTTGCTT (site TAGTCCTCTTA)	0.0542
TAGTCGACTTGGGTTCTAACCTGTTGCTT (site TAGACGACTAA)	0.652
TAGTCGACTTGGGTTCTAACCTGTTGCTT (site TAGCCGACTAA)	0.307
TAGTCGACTTGGGTTCTAACCTGTTGCTT (site TAGGCGACTAA)	0.0688
TAGTCGACTTGGGTTCTAACCTGTTGCTT (site TAGTCGACTAA)	0.103
TAGTCGTCTTGGGTTCTAACCTGTTGCCT (site TAGTCGTCTAA)	0.238
TAGTCGTCTTGGGTTCTAACCTGTTGCCT (site TAGTCGTCTAG)	1.3
TAGTCGTCTTGGGTTCTAACCTGTTGCTA (site TAGTCGTCTTA)	0.505
TAGTCGTCTTGGGTTCTAACCTGTTGCTA (site TATTTGTCTTA)	0.438
TAGTCTCCTTGGGTTCTAACCTGTTGCGT (site TAGTATCCTAC)	0.227
TAGTCTCCTTGGGTTCTAACCTGTTGCGT (site TAGTCTCCTAC)	0.314
TAGTCTCCTTGGGTTCTAACCTGTTGCGT (site TAGTGTCCTAC)	0.0837
TAGTCTCCTTGGGTTCTAACCTGTTGCGT (site TAGTTTCCTAC)	0.135
TAGTGAGCTTGGGTTCTAACCTGTTGCCG (site GCCCATCCTTA)	0.065
TAGTGAGCTTGGGTTCTAACCTGTTGCCG (site TAGTGAGCTCG)	1.44

Sequence	recombinant barcode read abundance (log10)
TAGTGAGCTTGGGTTCTAACCTGTTGCCT (site TAGTGAGCTAG)	1.37
TAGTGAGCTTGGGTTCTAACCTGTTGCCT (site TCGTGAGCTAG)	0.134
TAGTGCTCTTGGGTTCTAACCTGTTGCCC (site TAGTGCTCTAG)	0.675
TAGTGCTCTTGGGTTCTAACCTGTTGCCC (site TAGTGCTCTCG)	0.576
TAGTGCTCTTGGGTTCTAACCTGTTGCCC (site TAGTGCTCTGG)	1.37
TAGTGCTCTTGGGTTCTAACCTGTTGCCC (site TAGTGCTCTTG)	0.116
TAGTGTCCTTGGGTTCTAACCTGTTGCCT (site TAGTGTACTAG)	0.126
TAGTGTCCTTGGGTTCTAACCTGTTGCCT (site TAGTGTCCTAG)	1.11
TAGTGTCCTTGGGTTCTAACCTGTTGCCT (site TAGTGTGCTAG)	0.521
TAGTGTCCTTGGGTTCTAACCTGTTGCCT (site TAGTGTTCTAG)	0.405
TAGTGTCCTTGGGTTCTAACCTGTTGCGT (site TAGTATCCTAC)	0.309
TAGTGTCCTTGGGTTCTAACCTGTTGCGT (site TAGTCTCCTAC)	0.104
TAGTGTCCTTGGGTTCTAACCTGTTGCGT (site TAGTGTCCTAC)	1.86
TAGTGTCCTTGGGTTCTAACCTGTTGCGT (site TAGTTTCCTAC)	0.0286
TAGTGTGCTTGGGTTCTAACCTGTTGCCT (site TAGTGTACTAG)	0.514
TAGTGTGCTTGGGTTCTAACCTGTTGCCT (site TAGTGTCCTAG)	0.137
TAGTGTGCTTGGGTTCTAACCTGTTGCCT (site TAGTGTGCTAG)	1.06
TAGTGTGCTTGGGTTCTAACCTGTTGCCT (site TAGTGTTCTAG)	0.0139
TAGTGTTCTTGGGTTCTAACCTGTTGCCT (site TAGTGTACTAG)	0.104
TAGTGTTCTTGGGTTCTAACCTGTTGCCT (site TAGTGTCCTAG)	0.181
TAGTGTTCTTGGGTTCTAACCTGTTGCCT (site TAGTGTGCTAG)	0.106
TAGTGTTCTTGGGTTCTAACCTGTTGCCT (site TAGTGTTCTAG)	0.57

Sequence	recombinant barcode read abundance (log10)
TAGTTAGCTTGGGTTCTAACCTGTTGCCT (site TAGTTAGCTAG)	0.756
TAGTTAGCTTGGGTTCTAACCTGTTGCCT (site TAGTTAGCTCG)	0.217
TAGTTAGCTTGGGTTCTAACCTGTTGCCT (site TAGTTAGCTGG)	0.251
TAGTTAGCTTGGGTTCTAACCTGTTGCCT (site TAGTTAGCTTG)	0.11
TAGTTCACTTGGGTTCTAACCTGTTGCCA (site TAGTTAACTTG)	0.273
TAGTTCACTTGGGTTCTAACCTGTTGCCA (site TAGTTCACTTG)	0.0767
TAGTTCACTTGGGTTCTAACCTGTTGCCA (site TAGTTGACTTG)	0.0545
TAGTTCACTTGGGTTCTAACCTGTTGCCA (site TAGTTTACTTG)	0.0834
TAGTTGTCTTGGGTTCTAACCTGTTGCTT (site CGACGCACTCC)	0.301
TAGTTGTCTTGGGTTCTAACCTGTTGCTT (site TAGTTGTCTAA)	0.569
TAGTTTACTTGGGTTCTAACCTGTTGCTA (site GGTCAGTCTCC)	0.0822
TAGTTTACTTGGGTTCTAACCTGTTGCTA (site TAGTTTACTTA)	0.0536
TAGTTTGCTTGGGTTCTAACCTGTTGCCG (site ACCGACCCTAT)	0.00726
TAGTTTGCTTGGGTTCTAACCTGTTGCCG (site TAGTTTGCTCG)	0.743
TATAAGTCTTGGGTTCTAACCTGTTGCCT (site CGTAAGTCTAG)	0.0475
TATAAGTCTTGGGTTCTAACCTGTTGCCT (site TATAAGTCTAG)	0.0571
TATAATACTTGGGTTCTAACCTGTTGCGG (site TAGAATACTCC)	0.156
TATAATACTTGGGTTCTAACCTGTTGCGG (site TATAATACTCC)	0.659
TATAGAGCTTGGGTTCTAACCTGTTGCGG (site TAAAGAGCTCC)	0.358
TATAGAGCTTGGGTTCTAACCTGTTGCGG (site TACAGAGCTCC)	0.297
